Data published in the supplement of paper PMC10307832.

Columns and labels:
Test in all cases: relative viability (nuclei count vs DMSO), 5 days (fraction); higher = more cells survive
IPA-3 + Lapatinib = compound: C1=CC=C2C(=C1)C=CC(=C2SSC3=C(C=CC4=CC=CC=C43)O)O [IPA-3] + CS(=O)(=O)CCNCc1ccc(-c2ccc3ncnc(Nc4ccc(OCc5cccc(F)c5)c(Cl)c4)c3c2)o1 [Lapatinib] (partner 2 µM)
How it was run: (§1)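 Lung cancer cell lines were seeded in 1536-well plates and dosed by pin tool the next day, with either a single drug or a fixed anchor-drug dose combined with five library-drug doses (not always all listed) spaced in √10 steps. Five days later, one step fixed the cells and stained their nuclei (final 0.05% Triton X-100, 1% formaldehyde, 1 ug/ml Hoechst), and nuclei were counted on 4× images. Relative viability is the nuclei count in treated wells divided by the count in vehicle wells, and each value is the median of duplicate plates.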

Doramapimod + Trametinib = compound: Cc1ccc(-n2nc(C(C)(C)C)cc2NC(=O)Nc2ccc(OCCN3CCOCC3)c3ccccc23)cc1 [Doramapimod] + CC(=O)Nc1cccc(-n2c(=O)n(C3CC3)c(=O)c3c(Nc4ccc(I)cc4F)n(C)c(=O)c(C)c32)c1 [Trametinib] (partner 0.02 µM)
How it was run: as §1

Doramapimod + Dasatinib = compound: Cc1ccc(-n2nc(C(C)(C)C)cc2NC(=O)Nc2ccc(OCCN3CCOCC3)c3ccccc23)cc1 [Doramapimod] + Cc1nc(Nc2ncc(C(=O)Nc3c(C)cccc3Cl)s2)cc(N2CCN(CCO)CC2)n1 [Dasatinib] (partner 0.075 µM)
How it was run: as §1

Doramapimod + Lapatinib = compound: Cc1ccc(-n2nc(C(C)(C)C)cc2NC(=O)Nc2ccc(OCCN3CCOCC3)c3ccccc23)cc1 [Doramapimod] + CS(=O)(=O)CCNCc1ccc(-c2ccc3ncnc(Nc4ccc(OCc5cccc(F)c5)c(Cl)c4)c3c2)o1 [Lapatinib] (partner 2 µM)
How it was run: as §1

Row | Cell Line | relative viability (IPA-3 + Lapatinib; first compound 0.2 µM) | relative viability (IPA-3 + Lapatinib; first compound 0.6325 µM) | relative viability (IPA-3 + Lapatinib; first compound 2 µM) | relative viability (IPA-3 + Lapatinib; first compound 6.325 µM) | relative viability (IPA-3 + Lapatinib; first compound 20 µM) | relative viability (Doramapimod + Trametinib; first compound 0.02 µM) | relative viability (Doramapimod + Trametinib; first compound 0.06325 µM) | relative viability (Doramapimod + Trametinib; first compound 0.2 µM) | relative viability (Doramapimod + Trametinib; first compound 0.6325 µM) | relative viability (Doramapimod + Trametinib; first compound 2 µM) | relative viability (Doramapimod + Dasatinib; first compound 0.02 µM) | relative viability (Doramapimod + Dasatinib; first compound 0.06325 µM) | relative viability (Doramapimod + Dasatinib; first compound 0.2 µM) | relative viability (Doramapimod + Dasatinib; first compound 0.6325 µM) | relative viability (Doramapimod + Dasatinib; first compound 2 µM) | relative viability (Doramapimod + Lapatinib; first compound 0.02 µM) | relative viability (Doramapimod + Lapatinib; first compound 0.06325 µM) | relative viability (Doramapimod + Lapatinib; first compound 0.2 µM) | relative viability (Doramapimod + Lapatinib; first compound 0.6325 µM) | relative viability (Doramapimod + Lapatinib; first compound 2 µM)
1 | NCI-H661 | 0.445 | 0.472 | 0.584 | 0.447 | 0.537 | 0.642 | 0.58 | 0.598 | 0.732 | 0.512 | 0.703 | 0.855 | 1.04 | 1.19 | 0.909 | 0.477 | 0.438 | 0.48 | 0.588 | 0.413
2 | EMC-BAC-2 | 0.905 | 0.92 | 0.88 | 0.95 | 0.992 | 0.884 | 0.816 | 0.894 | 0.873 | 0.766 | 0.451 | 0.279 | 0.297 | 0.419 | 0.283 | 0.918 | 0.935 | 0.871 | 1.01 | 0.715
3 | NCI-H1355 | 1.11 | 0.968 | 0.941 | 0.966 | 1.01 | 0.456 | 0.393 | 0.376 | 0.43 | 0.408 | 0.713 | 0.692 | 0.724 | 0.753 | 0.623 | 0.972 | 0.992 | 0.964 | 0.95 | 0.952
4 | NCI-H23 | 1.16 | 1.04 | 1.24 | 1.09 | 0.735 | 0.287 | 0.346 | 0.402 | 0.415 | 0.376 | 0.734 | 0.709 | 0.856 | 0.836 | 0.759 | 0.962 | 0.998 | 1.11 | 0.761 | 1.12
5 | NCI-H1651 | 1.18 | – | 0.863 | 0.852 | 0.931 | 0.811 | 0.865 | 0.823 | 0.792 | 0.825 | 0.481 | 0.458 | 0.449 | 0.54 | 0.32 | 0.878 | 0.791 | 0.864 | 0.99 | 0.781
6 | NCI-H1975 | 1.18 | 0.888 | 0.964 | 0.889 | 0.927 | 0.337 | 0.307 | 0.348 | 0.4 | 0.331 | 0.284 | 0.365 | 0.353 | 0.374 | 0.357 | 0.937 | 0.947 | 0.898 | 1.23 | 0.901
7 | COR-L23 | 1.09 | 0.985 | 1.01 | 1.02 | 0.988 | 0.675 | 0.651 | 0.588 | 0.607 | 0.616 | 0.527 | 0.554 | 0.5 | 0.545 | 0.513 | 1.09 | 1.1 | 0.99 | 1.01 | 0.91
8 | LOU-NH91 | 0.745 | 0.799 | 0.74 | 0.77 | 0.789 | 0.802 | 0.771 | 0.761 | 0.767 | 0.678 | 0.559 | 0.535 | 0.599 | 0.671 | 0.365 | 0.693 | 0.673 | 0.678 | 0.631 | 0.628
9 | NCI-H647 | 1.71 | 1.02 | 0.876 | 0.335 | 0.0724 | 0.468 | 0.445 | 0.481 | 0.6 | 0.523 | 0.179 | 0.19 | 0.157 | 0.21 | 0.147 | 0.789 | 1.09 | 1.21 | 1.06 | 0.826
10 | NCI-H1915 | 1.06 | 0.968 | 0.934 | 0.941 | 1.02 | 0.303 | 0.313 | 0.311 | 0.311 | 0.277 | 0.304 | 0.327 | 0.316 | 0.354 | 0.307 | 0.973 | 1.1 | 1.01 | 0.995 | 0.844
11 | NCI-H1734 | 1.19 | 0.969 | 1.12 | 0.982 | 0.892 | 0.599 | 0.611 | 0.599 | 0.587 | 0.514 | 0.443 | 0.405 | 0.426 | 0.509 | 0.39 | 1.27 | 0.963 | 0.932 | 1.04 | 0.928
12 | NCI-H1993 | 0.829 | 0.742 | 0.767 | 0.909 | 0.738 | 0.458 | 0.504 | 0.622 | 0.45 | 0.434 | 0.885 | 0.638 | 0.505 | 0.705 | 0.559 | 0.792 | 0.728 | 0.774 | 1.03 | 0.877
13 | LK-2 | 1.13 | 0.877 | 0.959 | 0.9 | 0.821 | 0.587 | 0.727 | 0.715 | 0.31 | 0.647 | 0.241 | 0.278 | 0.202 | 0.213 | 0.22 | 0.972 | 0.873 | 0.904 | 0.68 | 0.754
14 | HCC-78 | 1.01 | 0.7 | 0.924 | 0.763 | 1.02 | 0.802 | 0.724 | 0.767 | 0.763 | 0.819 | 0.359 | 0.431 | 0.364 | 0.382 | 0.304 | 0.745 | 0.936 | 0.79 | 0.837 | 0.885
15 | NCI-H2405 | 1.15 | 1 | 0.921 | 1.17 | 1.16 | 0.613 | 0.618 | 0.612 | 0.705 | 0.581 | 0.222 | 0.219 | 0.2 | 0.403 | 0.188 | 1.15 | 1.1 | 1.07 | 1.16 | 0.969
16 | HOP-62 | 1.2 | 0.935 | 0.918 | 1.13 | 1.16 | 0.411 | 0.349 | 0.464 | 0.423 | 0.468 | 0.618 | 0.705 | 0.633 | 0.843 | 0.594 | 0.918 | 1.12 | 0.991 | 0.95 | 0.927
